Source: US20060078890A1, “Methods for identifying parkinson's disease therapeutics” (priority 2004, published 2006)
Entries after “also recorded” stand apart in the source; their conditions may differ. Ends that are not written are not given here.

What was measured:
[1] = test system: dopaminergic neurons in the substantia nigra; assay: Progressive 6-OHDA lesioned rats, TH immunohistochemistry of striatum and substantia nigra; assay type: in vivo, rat; conditions: unilateral intrastriatal 6-OHDA, total dose 22.5 μg; up to 28 days
Method: Female Sprague Dawley rats (200-250 g, Charles River, Wilmington, Mass.) receive unilateral intrastriatal stereotaxic injections of 6-OHDA (Sigma, St. Louis, USA) using a 10 μl Hamilton syringe. Intramuscular injections of Acepromazine (3.3 mg/kg, PromAce, Fort Dodge, Iowa) and atropine sulfate (0.2 mg/kg, Phoenix Pharmaceuticals, St. Joseph, Mo.) is given 10 minutes before animals will be anesthetized with ketamine/xylazine (60 mg/kg and 3 mg/kg respectively, i.m.). A concentration of 3.0 μg/μl free base 6-OHDA dissolved in 0.2% ascorbic acid/saline (Sigma) is injected into 3 locations (2.5 μl/site, total dose 22.5 μg) in the right striatum at the following coordinates (calculated from bregma): site 1, AP+1.3, L−2.8, DV−4.5, IB−2.3; site 2, AP+0.2, L−3.0, DV−5.0, IB−2.3; site 3, AP−0.6, L−4.0, DV−5.5, IB−2.3 mm.

PC12-αSyn cells = assay: MPP+ toxicity in α-synuclein overexpressing PC12 cells, cell death by LDH release; assay type: cell-based; conditions: for LDH release (cell death) induced by MPP+ toxicity; neuroprotective effect: PC12-αSyn cells pretreated for two hours prior to 1 mM MPP+ for 24 hours, increasing concentrations
Method: A PC12 cell line was transfected to express wild type human α-synuclein using the Tet-Off system (Clontech Laboratories, Palo Alto, Calif.). α-Synuclein expression was suppressed using 1 μg/mL doxycycline (Clontech) in culture media before expression is required. α-Synuclein expressing PC12 cells (PC12-αSyn) were grown in Dulbecco's modified Eagle's medium (DMEM) (Invitrogen, Calsbad, Calif.) supplemented with 10% heat-inactivated horse serum, 5% heat-inactivated fetal calf serum (Hyclone, Logan, Utah), 4 mM L-glutamine, streptomycin, and penicillin G (Fisher, Pittsburgh, Pa.). Cells were maintained at 37° C., in 5% CO2 humid atmosphere.
The effects of various neuroprotective agents were examined in the PC12-αSyn cell line. To determine MPP^+ neurotoxicity in α-synuclein- and naïve PC12 cells, cell death was measured by LDH release assays.
(§1) Cell death will be assessed by quantifying intra- and extracellular lactate dehydrogenase (LDH). The ratio between the amount of LDH released and the amount remaining in the cells produces a measure of cell death. [formula]
(§2) A sample of the medium will be the extracellular LDH sample. Cells were washed with PBS and extracted in cell lysis buffer (50 mM Tris pH 8.0, 150 mM NaCl, 5 mM EDTA, 1% Triton X-100, 10 μg/ml Aprotinin, 25 μg /ml Leupeptin, 10 μg/ml Pepstatin, 1 mM PMSF; all protease inhibitors purchased from Sigma Chemicals, St. Louis, Mo.). The cell homogenate were centrifuged at 4° C. for 3 minutes at 14,000 rpm. The supernatant were taken for intracellular LDH sample. LDH activity will be quantified using an LDH assay kit (Roche, Indianapolis, Ind.).

DAN cells = assay: MPP+ toxicity in human dopaminergic neuron precursor (DAN) cells, LDH release; assay type: cell-based; conditions: for LDH release (cell death) in MPP+ treated DAN cells: pretreated for two hours prior to MPP+ (1 mM)
From the text: DAN cells, which have been used to study neurodegeneration, can be used in the methods of this invention; they express multiple genes of Tables 4 and/or 5, and the expression of these genes following contact with a candidate compound can be measured. […] DAN cells are sensitive to the neurotoxin MPP^+.
as §1, §2

[2] = test system: TH-positive/GIRK2-positive dopaminergic neurons of primary VM culture; assay: MPP+ toxicity in primary ventral mesencephalic (VM) culture, stereological count of TH-positive/GIRK2-positive neurons; assay type: cell-based, rat; conditions: for protective effect against MPP+ toxicity on GIRK2-positive/TH-positive neurons: pretreated 2 hours prior to 10 μM MPP+
Method: VMDA cultures were obtained from E15 Sprague-Dawley rat (Charles River, Mass.) ventral mesencephalon (VM). Tissue was mechanically dissociated with a pasteur pipette. The cells were resuspended in DMEM containing heat-inhibited horse serum (10%), glucose (6.0 mg/ml), penicillin, streptomycin, and 2 mM glutamine (Gibco). Cell suspensions containing 4×10^5 cells were plated on a coverslip in a 24-well plate, precoated with a 1:500 diluted solution of polyornithine and fibronectin in 50 mM sodium borate (pH 7.4) overnight.
These cultures contained a mixed cell population having approximately 40% of TH-positive neurons at 5 days in vitro (DIV) with both A9- and A10-like dopaminergic neurons (FIG. 4A). […] The cultures were treated with MPP^+ at day 5 for 48 hours using concentrations ranging from 0.1 to 10 μM. Cells were fixed with paraformaldehyde for immunostaining of TH and GIRK2 48 hours after MPP^+ treatment.
The cultures were pretreated with the polypeptide factors 2 hours prior to 10 μM MPP^+ treatment.
Routine indirect immunofluorescence was performed on 4% paraformaldehyde fixed VM culture. The fixed cells were incubated in a blocking solution consisting of 10% normal donkey serum (Jackson Immuno Research Laboratories Inc, West Grove, Pa.) and 0.1% Triton X-100 (Sigma, St. Louis, Mo.) in 0.1M phosphate buffered saline (PBS) for 1 hour at room temperature before transferring to the primary antibody solution. The primary antibodies were diluted in blocking solution and the cells were incubated overnight at 4° C. The primary antibodies used were raised against tyrosine hydroxylase (sheep anti-TH, 1:300, Pel-Freez Biologicals, Rogers, Ak.) and GIRK2 (rabbit; 1:80, Alomone Laboratories, Jerusalem, Israel). The cells were rinsed three times in 0.1 M PBS for five minutes each before the application of the secondary antibody solution for one hour at room temperature. The secondary antibodies were diluted in 10% normal donkey serum in 0.1M PBS. The secondary antibodies were conjugated to spectrally distinct fluorescent dyes to facilitate color separation (Alexa Fluor 488 conjugated donkey anti-sheep and Alexa Fluor 594 conjugated donkey anti-rabbit, Molecular Probes, Eugene, Oreg.). After rinsing in triplicate for ten minutes each in 0.1 M PBS, the cells were counterstained with 0.0005% Hoechst 33342 (Molecular Probes) in 0.1M Tris buffered saline. The coverslips containing the fixed cells were then rinsed in 0.1M PBS followed by distilled water and mounted onto slides using an aqueous mountant (Gel/Mount, Biømeda Corp., Calif.). Control coverslips immunostained without primary antibody were used to assess specificity of the technique.
Design based stereology was performed by counters blinded to experimental groups on the stained coverslips using an integrated Axioskop 2 microscope (Carl Zeiss, Thornwood, N.Y.) and Stereoinvestigator image capture equipment and software (MicroBrightField, Williston, Vt.). A contour was drawn around each coverslip to identify the area of interest. A physical disector probe was utilized and counting frames were placed in a systematically random manner at approximately 125 sites per coverslip. The resultant coefficient of error for the stereological counts was used to assess precision (p<0.05).

**Q.** `NCCc1cc(O)c(O)cc1O` [6-OHDA, 6-hydroxydopamine] was tested. Which “loss of dopaminergic fibers in the striatum and neuronal cell bodies in the substantia nigra” value [1] did it give?
**A.** progressive degeneration of dopaminergic neuronal cell bodies

**Q.** `COC(=O)C[C@H](NC(=O)OC(C)(C)C)C(=O)CF` [BAF, reference compound] was tested. Which “MPP+ susceptibility (LDH release) after pretreatment with neuroprotective agent” value (PC12-αSyn cells; PC12-αSyn cells pretreated) did it give?
**A.** significantly decreased

**Q.** Which “dose of MPP+ giving maximal toxic insult (LDH release)” value (DAN cells; DAN cells) does the source give for `C[n+]1ccc(-c2ccccc2)cc1` [MPP^+, 1-methyl-4-phenylpyridinium, reference compound] here?
**A.** 2.5 mM

**Q.** And the “vulnerability of TH-positive/GIRK2-positive versus TH-positive/GIRK2-negative cells” value ([2]; primary VM culture, MPP+ 0.1 to 10 μM at day 5 for 48 hours)?
**A.** more vulnerable

**Q.** What about the “LDH release in PC12-αSyn cells compared with naive PC12 cells” value (PC12-αSyn cells; intermediate concentration (2.5 mM) of MPP+) of the same molecule?
**A.** significantly higher LDH release

**Q.** For Fibroblast growth factor 1 [FGF1], which “LDH release (cell death) induced by MPP+ toxicity; protection by FGF1” value (PC12-αSyn cells; PC12-αSyn cells, FIG. 2D) is on record?
**A.** significantly reduced; also recorded: able to protect PC12-αSyn cells from MPP^+ in a dose-dependent manner

**Q.** Which “LDH release (cell death) in MPP+ treated DAN cells” value (DAN cells) does the source give for “NT-3: neurotrophic factor known to have elevated expression in A10 dopaminergic neurons” here?
**A.** significant dose-dependent reduction in LDH release

**Q.** What about the “LDH release (cell death) in MPP+ treated DAN cells” value (DAN cells; listed as NT3) of the same molecule?
**A.** protective effect

**Q.** And the “protective effect against MPP+ toxicity on GIRK2-positive/TH-positive neurons” value (“protective effect against MPP+ toxicity” for short) ([2]; primary VM culture)?
**A.** significant protective effect

**Q.** And the “survival of TH and TH/GIRK2 double-labeled neurons against MPP+ toxicity” value ([2]; primary VMDA culture, NT3 at 17 ng/ml, MPP+ 10 μM)?
**A.** protects the cells against MPP^+ toxicity

**Q.** And the “LDH release (cell death) induced by MPP+ toxicity; neuroprotective effect” value (“LDH release … neuroprotective effect” below) (PC12-αSyn cells)?
**A.** Significant dose-dependent reductions in LDH release; also recorded: able to protect PC12-α-Syn cells from MPP^+ neurotoxicity in a dose-dependent manner

**Q.** How did the “neuroprotective effect in primary VM culture (TH and GIRK2 immunostaining)” value ([2]; 48 hours after 10 μM MPP+, 10^−6 M VIP) turn out when “Vasoactive intestinal peptide (HSDAVFTDNYTRLRKQMAVKKYLNSILN; ends and bridges not checked; UniProt P01282 125-152, looked up) [VIP, neuropeptide elevated in A10 dopaminergic neurons]” was run?
**A.** neuroprotective effect

**Q.** What about the “protective effect against MPP+ toxicity” value ([2]; primary VM culture) of the same molecule?
**A.** significant protective effect

**Q.** What about the “LDH release … neuroprotective effect” value (PC12-αSyn cells) of the same molecule?
**A.** Significant dose-dependent reductions in LDH release; also recorded: dose-dependent neuroprotective effects

**Q.** With “calcitonin/calcitonin gene-related peptide alpha [CGRP]” as the molecule, how does the “LDH release … neuroprotective effect” value (PC12-αSyn cells) read?
**A.** Significant dose-dependent reductions in LDH release; also recorded: dose-dependent neuroprotective effects

**Q.** With “cholecysokinin-8 (DYMGWMDF; ends and bridges not checked; UniProt P06307 96-103, looked up) [CCK-8, neuropeptide elevated in A10 dopaminergic neurons]” as the molecule, how does the “LDH release … neuroprotective effect” value (PC12-αSyn cells) read?
**A.** Significant dose-dependent reductions in LDH release; also recorded: dose-dependent neuroprotective effects

**Q.** Which “protective effect against MPP+ toxicity” value ([2]; primary VM culture) does the source give for “gastrin releasing peptide (VPLPAGGGTVLTKMYPRGNHWAVGHLM; ends and bridges not checked; UniProt P07492 24-50, looked up) [GRP, neuropeptide elevated in A10 dopaminergic neurons]” here?
**A.** significant protective effect

**Q.** And the “LDH release … neuroprotective effect” value (PC12-αSyn cells)?
**A.** Significant dose-dependent reductions in LDH release; also recorded: dose-dependent neuroprotective effects
